Data on one compound can be found in BindingDB's records for doi:10.1074/jbc.271.28.16435 (Merck Research Laboratories, 1996).

Structures are written as SMILES.

The target in assay [1] is T1, Neuropeptide Y receptor type 1 (Mus musculus, UniProt Q04573).
T1 sequence (Q04573 whole entry): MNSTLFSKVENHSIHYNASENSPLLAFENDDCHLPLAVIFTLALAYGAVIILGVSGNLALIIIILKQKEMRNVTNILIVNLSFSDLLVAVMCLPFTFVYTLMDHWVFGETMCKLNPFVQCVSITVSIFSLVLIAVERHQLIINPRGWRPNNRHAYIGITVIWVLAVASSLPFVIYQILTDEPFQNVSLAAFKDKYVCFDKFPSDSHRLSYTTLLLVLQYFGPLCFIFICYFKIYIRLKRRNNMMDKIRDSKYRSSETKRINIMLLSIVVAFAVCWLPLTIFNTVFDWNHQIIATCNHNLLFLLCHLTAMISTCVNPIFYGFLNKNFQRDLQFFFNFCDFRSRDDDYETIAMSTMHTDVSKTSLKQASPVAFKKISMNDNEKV

Assay [2] concerns the target T2, Neuropeptide Y receptor type 5 (Mus musculus, UniProt O70342).
T2 sequence (O70342 whole entry): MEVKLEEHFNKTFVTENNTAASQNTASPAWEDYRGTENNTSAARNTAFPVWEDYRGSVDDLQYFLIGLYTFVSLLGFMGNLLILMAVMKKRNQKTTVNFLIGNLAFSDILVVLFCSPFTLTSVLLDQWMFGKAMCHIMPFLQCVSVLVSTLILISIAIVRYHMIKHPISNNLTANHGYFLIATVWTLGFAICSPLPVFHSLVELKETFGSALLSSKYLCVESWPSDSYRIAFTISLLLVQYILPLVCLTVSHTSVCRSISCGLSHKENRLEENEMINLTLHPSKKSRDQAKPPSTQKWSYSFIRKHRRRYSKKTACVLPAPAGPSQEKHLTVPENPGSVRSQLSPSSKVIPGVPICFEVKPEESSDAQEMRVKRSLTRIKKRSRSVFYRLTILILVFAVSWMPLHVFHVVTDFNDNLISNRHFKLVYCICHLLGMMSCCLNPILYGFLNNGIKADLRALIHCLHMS

Turning to `CC[C@H](C)[C@H](NC(=O)[C@H](Cc1ccc(O)cc1)NC(=O)[C@H](CCCNC(=N)N)NC(=O)[C@H](CCCNC(=N)N)NC(=O)[C@H](CC(C)C)NC(=O)[C@H](CC(=O)O)NC(=O)[C@H](C)NC(=O)[C@H](C)NC(=O)[C@H](Cc1ccc(O)cc1)NC(=O)[C@H](CCC(N)=O)NC(=O)[C@H](C)NC(=O)[C@H](CCSC)NC(=O)[C@H](CCC(N)=O)NC(=O)[C@H](CCC(=O)O)NC(=O)[C@@H]1CCCN1C(=O)[C@@H](NC(=O)[C@H](C)NC(=O)[C@H](CC(N)=O)NC(=O)[C@H](CC(=O)O)NC(=O)CNC(=O)[C@@H]1CCCN1C(=O)[C@H](Cc1ccc(O)cc1)NC(=O)[C@@H](NC(=O)[C@@H]1CCCN1C(=O)[C@H](CCC(=O)O)NC(=O)[C@H](CC(C)C)NC(=O)[C@@H]1CCCN1C(=O)[C@H](C)N)C(C)C)[C@@H](C)O)C(=O)N[C@@H](CC(N)=O)C(=O)N[C@@H](CCSC)C(=O)N[C@@H](CC(C)C)C(=O)N[C@H](C(=O)N[C@@H](CCCNC(=N)N)C(=O)N1CCC[C@H]1C(=O)N[C@@H](CCCNC(=N)N)C(=O)N[C@@H](Cc1ccc(O)cc1)C(N)=O)[C@@H](C)O` [CAS_59763-91-6], the Ki in assay [1] was 122 nM; in assay [2] it was 1000 nM.

Broadly, the Ki is the equilibrium dissociation constant of an inhibitor or competing ligand from its target. Lower therefore signals tighter binding.
